Results published in US7951832B2, “Pyrazole derivatives as kinase inhibitors” (Burnham Institute for Medical Research, priority 2007, dated 2011).

Each molecule was assayed against mTOR (Homo sapiens, UniProt P42345) (assay: Inhibition of mTOR). Settings: IC50.
Type: biochemical

| Compound | IC50 [nM] |
| --- | --- |
| Cn1cncc1C#Cc1n[nH]c2ccccc12 | > 100000 |
| O=C(O)c1ccc(C#Cc2n[nH]c3ccccc23)cc1 | 31000 |

Same assay, conditions: read-out: mTOR (Inhibition % at 50 μM, or IC50); inhibition at 50 μM

| Compound | inhibition at 50 µM [%] |
| --- | --- |
| COc1ccc2cc(C#Cc3n[nH]c4ccccc34)ccc2c1 | 5 |
| C(#Cc1n[nH]c2ccccc12)c1ccsc1 | 7 |
| Cn1cncc1C#Cc1n[nH]c2cc(C(=O)NC34CC5CC(CC(C5)C3)C4)ccc12 | -11 |
| Cn1cncc1C#Cc1n[nH]c2cc(C(=O)O)ccc12 | 24 |
| Cn1cncc1C#Cc1n[nH]c2cc(C(=O)NCc3cc4ccccc4[nH]3)ccc12 | 3 |
| Fc1cc(F)cc(C#Cc2n[nH]c3ccccc23)c1 | 6 |
| O=[N+]([O-])c1ccc2c(C#Cc3ccccc3)n[nH]c2c1 | -1 |
| FC(F)(F)c1cc(C#Cc2n[nH]c3ccccc23)cc(C(F)(F)F)c1 | -3 |
| COC(=O)c1ccc2c(C#Cc3cncn3C)n[nH]c2c1 | 4 |
| Cn1cncc1C#Cc1n[nH]c2cc(C(=O)NCc3ccco3)ccc12 | -5 |
| C(#Cc1n[nH]c2ccccc12)c1ccccn1 | 13 |
| C(#Cc1n[nH]c2ccccc12)c1ccncc1 | 30 |
| C(#Cc1n[nH]c2ncccc12)c1ccncc1 | 15 |
| COc1ccc(C#Cc2n[nH]c3ccccc23)cc1 | 5 |
| Cn1cncc1C#Cc1n[nH]c2ccccc12 | 46 |
| Nc1ccc(C#Cc2n[nH]c3ccccc23)cc1 | 9 |
| C(#CC1CCCC1)c1n[nH]c2ccccc12 | 3 |

The next lines start with the values.

| inhibition at 50 µM [%] | Compound |
| --- | --- |
| 1 | N#Cc1ccc(C#Cc2n[nH]c3ccccc23)cc1 |
| -17 | Cn1cncc1C#Cc1n[nH]c2cc(C(=O)NCc3ccccn3)ccc12 |
| 2 | C(#CC1CC1)c1n[nH]c2ccccc12 |
| -14 | Cn1cncc1C#Cc1n[nH]c2cc(C(=O)NCc3cccs3)ccc12 |
| 34 | C(#Cc1n[nH]c2ccccc12)c1cccnc1 |
| 7 | C(#Cc1n[nH]c2ncccc12)c1ccccn1 |
| 6 | C(#Cc1n[nH]c2ccccc12)c1ccccc1 |
| 9 | Nc1cccc(C#Cc2n[nH]c3ccccc23)c1 |
| 3 | NCCCCCNC(=O)c1ccc(C#Cc2n[nH]c3ccccc23)cc1 |
| -7 | Cc1ccc2[nH]c(C(C)NC(=O)c3ccc4c(C#Cc5cncn5C)n[nH]c4c3)nc2c1 (stereo not shown) |
| -27 | Cn1cncc1C#Cc1n[nH]c2cc(C(=O)NC(c3ccncc3)c3ccc(Cl)cc3)ccc12 (stereo not shown) |
| -6 | CC(C)(C)OC(=O)NCCCCCNC(=O)c1ccc(C#Cc2n[nH]c3ccccc23)cc1 |

What follows are molecules tested against PI3 K P110α (Homo sapiens, UniProt P42336) (assay: Inhibition of PI3K (P110α)). Settings: values printed without % sign, read as IC50, read-out: PI3 K (% at 25 μM, or IC50), P110α.
PI3 K P110α, sequence (P42336 whole entry): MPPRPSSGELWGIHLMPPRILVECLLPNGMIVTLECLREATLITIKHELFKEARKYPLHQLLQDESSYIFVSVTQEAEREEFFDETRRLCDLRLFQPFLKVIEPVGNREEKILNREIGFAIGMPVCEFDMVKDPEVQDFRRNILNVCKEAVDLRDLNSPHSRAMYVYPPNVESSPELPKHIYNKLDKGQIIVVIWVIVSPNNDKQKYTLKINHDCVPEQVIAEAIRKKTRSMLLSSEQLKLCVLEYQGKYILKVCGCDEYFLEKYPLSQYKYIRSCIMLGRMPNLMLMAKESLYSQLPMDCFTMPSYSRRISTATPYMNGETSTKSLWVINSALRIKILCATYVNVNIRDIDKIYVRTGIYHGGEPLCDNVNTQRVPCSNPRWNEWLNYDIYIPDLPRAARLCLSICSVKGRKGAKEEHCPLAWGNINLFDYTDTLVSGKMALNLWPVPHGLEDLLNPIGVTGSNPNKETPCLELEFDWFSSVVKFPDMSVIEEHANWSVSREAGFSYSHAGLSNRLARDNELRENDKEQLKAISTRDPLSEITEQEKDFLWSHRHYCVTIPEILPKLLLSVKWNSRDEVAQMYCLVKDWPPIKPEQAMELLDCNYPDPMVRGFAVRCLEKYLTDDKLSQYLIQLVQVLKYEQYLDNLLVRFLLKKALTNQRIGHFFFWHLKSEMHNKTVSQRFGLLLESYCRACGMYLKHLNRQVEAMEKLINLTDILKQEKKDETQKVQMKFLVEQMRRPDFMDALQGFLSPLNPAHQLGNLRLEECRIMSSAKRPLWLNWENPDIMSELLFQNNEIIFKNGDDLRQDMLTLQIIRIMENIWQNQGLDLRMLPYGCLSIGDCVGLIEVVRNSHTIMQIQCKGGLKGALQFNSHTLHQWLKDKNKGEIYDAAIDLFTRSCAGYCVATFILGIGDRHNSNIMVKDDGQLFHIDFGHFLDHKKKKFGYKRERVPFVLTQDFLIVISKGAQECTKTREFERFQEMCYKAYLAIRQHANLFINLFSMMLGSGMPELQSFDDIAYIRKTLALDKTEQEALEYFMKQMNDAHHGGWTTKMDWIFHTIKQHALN
PI3 K P110α, sequence (P27986 whole entry partner): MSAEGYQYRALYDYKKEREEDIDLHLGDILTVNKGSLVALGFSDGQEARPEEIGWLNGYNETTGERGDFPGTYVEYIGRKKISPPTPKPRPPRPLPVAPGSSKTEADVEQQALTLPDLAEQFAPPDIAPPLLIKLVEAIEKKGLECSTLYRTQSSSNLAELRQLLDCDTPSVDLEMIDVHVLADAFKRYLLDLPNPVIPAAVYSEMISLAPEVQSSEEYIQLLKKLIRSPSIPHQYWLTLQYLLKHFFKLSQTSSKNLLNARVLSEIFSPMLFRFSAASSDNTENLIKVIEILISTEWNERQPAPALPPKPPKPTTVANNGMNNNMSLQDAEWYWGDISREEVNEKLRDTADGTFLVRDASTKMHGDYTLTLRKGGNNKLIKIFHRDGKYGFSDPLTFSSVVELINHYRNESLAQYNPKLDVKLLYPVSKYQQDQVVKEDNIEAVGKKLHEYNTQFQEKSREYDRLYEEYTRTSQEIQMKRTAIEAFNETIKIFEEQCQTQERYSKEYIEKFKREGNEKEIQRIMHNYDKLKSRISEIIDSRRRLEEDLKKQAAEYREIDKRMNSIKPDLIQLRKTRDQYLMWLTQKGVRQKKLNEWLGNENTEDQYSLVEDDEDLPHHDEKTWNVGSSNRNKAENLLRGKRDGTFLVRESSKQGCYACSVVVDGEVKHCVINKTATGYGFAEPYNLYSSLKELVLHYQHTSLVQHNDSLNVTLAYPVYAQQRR
Type: biochemical

| Compound | IC50 [nM] |
| --- | --- |
| Cn1cncc1C#Cc1n[nH]c2ccccc12 | 62 |
| COc1ccc(C(NC(=O)c2ccc3c(C#Cc4cncn4C)n[nH]c3c2)c2ccncc2)cc1 (stereo not shown) | 82 |
| Nc1ccc(C#Cc2n[nH]c3ccccc23)cc1 | 83 |
